In brackets after ≈: the same amount, converted by molar mass. Square brackets hold non-standard residues; d marks the D form. Peptide text beside a SMILES is read from it. * marks the point of attachment. Octanoyl = CCCCCCCC(=O)*
Assays:
Format in all cases: cell-based
Details in all cases: Mueller Hinton broth, 16-20 hours at 37° C.
C. albicans = test: MIC assay, microtiter broth dilution (NCCLS M7-T2)
Method: (§1) The procedure for the following antibacterial assay is based upon the guidelines of the National Committee for Clinical Laboratory Standards, Document M7-T2, Volume 8, No. 8, 1988.
(§2) were prepared at a concentration of 512 μpg/ml in sterile deionized distilled water and stored at -70° C.
(§3) 1.5×10^5 CFUs/ml of either S. aureus ATCC 25923, E. coli ATCC 25922, P. aeruginosa ATCC 27853, or C. albicans were added to the wells in full strength Mueller Hinton broth (BBL 11443) from a mid-log culture. The inoculums are standarized spectrophotometrically at 600 nm and is verified by colony counts. The plates are incubated for 16-20hours at 37° C., and the minimal inhibitory concentration (MIC) for each peptide is determined. Minimal inhibitory concentration is defined as the lowest concentration of peptide which produces a clear well in the microtiter plate.

E. coli ATCC 25922 = test: Antibacterial MIC assay, microtiter broth dilution (NCCLS M7-T2)
Method: as §1, §2, §3

P. aeruginosa ATCC 27853 = test: as above
Method: as §1, §2, §3

S. aureus ATCC 25923 = test: as above
Method: as §1, §2, §3

CCCCCCCC(=O)N[C@H](CC(C)C)C(=O)N[C@H](CCCCN)C(=O)N[C@H](CCCCN)C(=O)N[C@H](CC(C)C)C(=O)N[C@H](CC(C)C)C(=O)N[C@H](CCCCN)C(=O)N[C@H](CCCCN)C(=O)N[C@H](CC(C)C)C(=O)N[C@H](CCCCN)C(=O)N[C@H](CCCCN)C(=O)N[C@H](CC(C)C)C(N)=O [Oct-D-(SEQ ID NO:11)-NH2] (Octanoyl-[dL][dK][dK][dL][dL][dK][dK][dL][dK][dK][dL]-NH2)
MIC C. albicans (C. albicans): 32 µg/mL (≈ 21.6 µM)
MIC E. coli (E. coli ATCC 25922): 8 µg/mL (≈ 5.41 µM)
MIC P. aeruginosa (P. aeruginosa ATCC 27853): 4 µg/mL (≈ 2.71 µM)
MIC S. aureus (S. aureus ATCC 25923): 4 µg/mL (≈ 2.71 µM)

CCCCCCCC(=O)N[C@@H](CC(C)C)C(=O)N[C@@H](CCCCN)C(=O)N[C@@H](CCCCN)C(=O)N[C@@H](CC(C)C)C(=O)N[C@@H](CC(C)C)C(=O)N[C@@H](CCCCN)C(=O)N[C@@H](CCCCN)C(=O)N[C@@H](CC(C)C)C(=O)N[C@@H](CCCCN)C(=O)N[C@@H](CCCCN)C(=O)N[C@@H](CC(C)C)C(N)=O [Oct-(SEQ ID NO:11)-NH2, reference compound] (Octanoyl-LKKLLKKLKKL-NH2)
MIC C. albicans (C. albicans): 32 µg/mL (≈ 21.6 µM)
MIC E. coli (E. coli ATCC 25922): 8 µg/mL (≈ 5.41 µM)
MIC P. aeruginosa (P. aeruginosa ATCC 27853): 4 µg/mL (≈ 2.71 µM)
MIC S. aureus (S. aureus ATCC 25923): 4 µg/mL (≈ 2.71 µM)
